# Measured values from publication PMC9421654, “Discovery of Substituted Di(pyridin-2-yl)-1,2,4-thiadiazol-5-amines as Novel Macrofilaricidal Compounds for the Treatment of Human Filarial Infections” (Journal of Medicinal Chemistry, 2022).
# pEC50, pIC50: −log10 of the molar value. Values joined by “and” are separate entries in the source; they are usually repeats but may differ in a detail not shown here. Equal entries are not always repeated. Where two headings read alike, the source gives them in different places.
# Key:
# [1] = target: T1, P-gp (MDR1) (Homo sapiens, UniProt P08183); assay: MDCK/MDR1 permeability and efflux; format: in vitro ADME; details: dog
# T1 construct: expressed in transfected cells; host or cells: MDCK (Madin Darby canine kidney) cells
# T1 sequence (P08183 whole entry): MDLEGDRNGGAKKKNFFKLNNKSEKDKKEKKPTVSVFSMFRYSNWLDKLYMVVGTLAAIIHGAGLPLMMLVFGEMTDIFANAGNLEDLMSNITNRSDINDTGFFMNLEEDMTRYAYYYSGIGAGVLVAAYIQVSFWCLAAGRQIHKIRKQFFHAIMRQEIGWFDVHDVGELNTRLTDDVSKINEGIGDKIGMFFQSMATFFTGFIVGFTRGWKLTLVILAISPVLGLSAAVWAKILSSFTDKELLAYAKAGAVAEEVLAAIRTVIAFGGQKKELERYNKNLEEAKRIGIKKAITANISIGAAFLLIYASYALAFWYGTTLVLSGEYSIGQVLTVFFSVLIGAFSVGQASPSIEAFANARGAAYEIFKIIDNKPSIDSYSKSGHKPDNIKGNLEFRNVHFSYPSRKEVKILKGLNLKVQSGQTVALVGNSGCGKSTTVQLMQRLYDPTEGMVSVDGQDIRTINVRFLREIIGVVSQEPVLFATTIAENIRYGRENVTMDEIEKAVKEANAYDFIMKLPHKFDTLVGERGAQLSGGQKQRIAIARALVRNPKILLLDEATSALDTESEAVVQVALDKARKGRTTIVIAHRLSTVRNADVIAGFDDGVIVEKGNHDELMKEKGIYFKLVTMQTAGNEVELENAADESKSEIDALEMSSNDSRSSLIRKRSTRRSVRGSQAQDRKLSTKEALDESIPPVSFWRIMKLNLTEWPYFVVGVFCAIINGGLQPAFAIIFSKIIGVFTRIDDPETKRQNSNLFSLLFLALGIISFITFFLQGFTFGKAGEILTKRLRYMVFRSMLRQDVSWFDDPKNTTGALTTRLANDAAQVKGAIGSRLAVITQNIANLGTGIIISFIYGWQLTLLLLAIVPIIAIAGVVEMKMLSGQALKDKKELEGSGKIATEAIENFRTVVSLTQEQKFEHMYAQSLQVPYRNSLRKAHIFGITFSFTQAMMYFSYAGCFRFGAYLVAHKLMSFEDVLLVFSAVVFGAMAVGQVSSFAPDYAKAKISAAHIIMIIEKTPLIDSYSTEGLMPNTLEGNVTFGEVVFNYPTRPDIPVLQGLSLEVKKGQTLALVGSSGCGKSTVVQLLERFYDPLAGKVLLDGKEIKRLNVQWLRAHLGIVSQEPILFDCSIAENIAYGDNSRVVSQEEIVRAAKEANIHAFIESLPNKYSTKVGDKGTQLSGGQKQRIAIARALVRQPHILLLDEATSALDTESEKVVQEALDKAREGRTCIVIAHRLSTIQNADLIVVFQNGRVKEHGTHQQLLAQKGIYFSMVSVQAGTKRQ
# Description: Our approach was to target compounds with efflux ratio (ER) >2.5 in the MDCK cell line transfected with MDR1 (multidrug resistance-1 transfected Madin Darby canine kidney cell line). […] Our goal was to impart structural elements designed to impart Pgp recognition.
# [2] = target: T2, hERG potassium channels (KCNH2, expressed in HEK293 cells) (Homo sapiens, UniProt Q12809); assay: hERG inhibition; format: cell-based; details: supplement
# T2 construct: expressed in transfected cells
# T2 sequence (Q12809 whole entry): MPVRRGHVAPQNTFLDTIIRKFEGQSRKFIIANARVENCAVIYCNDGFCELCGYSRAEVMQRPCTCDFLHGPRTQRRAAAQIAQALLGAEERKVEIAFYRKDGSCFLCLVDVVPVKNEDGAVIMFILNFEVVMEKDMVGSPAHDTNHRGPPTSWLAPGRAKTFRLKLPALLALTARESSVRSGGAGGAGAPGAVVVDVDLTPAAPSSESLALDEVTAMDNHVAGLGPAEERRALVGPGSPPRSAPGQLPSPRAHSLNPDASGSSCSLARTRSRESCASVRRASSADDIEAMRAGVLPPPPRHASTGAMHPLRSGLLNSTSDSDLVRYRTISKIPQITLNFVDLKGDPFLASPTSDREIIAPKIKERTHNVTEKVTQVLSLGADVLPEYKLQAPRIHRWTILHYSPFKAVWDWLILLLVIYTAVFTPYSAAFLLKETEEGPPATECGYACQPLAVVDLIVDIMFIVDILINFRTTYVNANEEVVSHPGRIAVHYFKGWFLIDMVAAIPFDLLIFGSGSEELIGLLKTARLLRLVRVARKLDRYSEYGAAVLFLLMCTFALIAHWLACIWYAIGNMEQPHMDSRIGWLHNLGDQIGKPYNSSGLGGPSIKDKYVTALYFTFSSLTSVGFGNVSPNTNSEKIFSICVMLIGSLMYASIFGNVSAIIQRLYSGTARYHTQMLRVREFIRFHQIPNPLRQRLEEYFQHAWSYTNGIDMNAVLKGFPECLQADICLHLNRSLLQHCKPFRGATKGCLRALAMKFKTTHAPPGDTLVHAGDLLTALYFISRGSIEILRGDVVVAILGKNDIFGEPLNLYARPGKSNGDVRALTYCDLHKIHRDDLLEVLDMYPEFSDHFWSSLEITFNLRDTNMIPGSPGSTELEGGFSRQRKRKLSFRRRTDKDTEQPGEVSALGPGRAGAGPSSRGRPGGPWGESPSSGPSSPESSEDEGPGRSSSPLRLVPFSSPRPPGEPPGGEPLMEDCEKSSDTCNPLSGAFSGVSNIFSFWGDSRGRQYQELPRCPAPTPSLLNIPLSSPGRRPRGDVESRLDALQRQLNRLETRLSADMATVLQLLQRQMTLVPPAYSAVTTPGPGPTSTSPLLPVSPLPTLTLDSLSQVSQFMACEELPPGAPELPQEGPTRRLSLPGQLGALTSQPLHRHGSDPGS
# [3] = system: O. gutturosa adult male worms; assay: O. gutturosa adult worm ex vivo assay, motility; format: cell-based, Onchocerca gutturosa; details: Onchocerca gutturosa
# Procedure, shortened: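 Adult male O. gutturosa from naturally infected cattle were cultured in supplemented MEM at 37 °C, 5% CO2, with four worms per concentration in serial 1-in-4 dilutions. Motility (0–10 scale) was scored every 24 h to 120 h. EC50 (geomean, n=2) for motility reduction came from 4PL fits, and viability was checked by MTT at 120 h.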
# [4] = system: O. gutturosa adult male worms; assay: O. gutturosa adult worm ex vivo assay, MTT/formazan viability; format: cell-based, Onchocerca gutturosa; details: Onchocerca gutturosa, supplement; SD in brackets in the PDF table; read-out: O. gutturosa EC50 (uM) MTT viability inhibition
# Procedure, shortened: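 Adult male worms from naturally infected Gambian cattle were kept individually in MEM with 10% newborn calf serum at 37 °C, 5% CO2; four worms per concentration. Motility was scored 0-10 every 24 h to 120 h as a percentage of maximum, with ≥50% reduction versus untreated counted active. Afterwards, MTT (0.5 mg/mL, 30 min) formazan was read at 490 nm.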
# [5] = LogD measurement (octanol-water); format: physicochemical
# Procedure, shortened: (§1)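 Human and rat liver microsomes (0.3 mg/mL) with 1 mM NADPH and 3µM substrate, 30 minutes at 37 °C in pH 7.4 phosphate/MgCl2, triplicate; LC-MS/MS percentage remaining. LogD: octanol/aqueous buffer (pH 7.4, 2.2, 6.8, 5), 24 h shaking at room temperature. Kinetic solubility: 200 µM, 2% DMSO, 24 h, filtered.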
# [6] = Kinetic solubility measurement; format: physicochemical
# Procedure, shortened: as §1
# [7] = system: THLE-2 cells; assay: THLE-2 cytotoxicity assay (ATP); details: Homo sapiens, THLE-2, read-out: THLE IC50
# Protocol: In vitro cytotoxicity of select compounds was tested in a “normal” proliferating transformed human liver epithelial (THLE-2) cell line.[35] Compounds were incubated in THLE-2 cells for 24 and 72 h, and adenosine triphosphate (ATP) levels were used as an indicator of cell viability.
# THLE-2 Cytotoxicity Assay: THLE-2 cells (ATCC, catalog #CRL-2706) were plated in LHC-8 Media (Invitrogen, catalog #12679015) supplemented with fetal bovine serum (GE, catalog #SH30088.03), 70 ng/mL phosphoethanolamine (Sigma, catalog #P0503), 5 ng/mL EGF (Sigma, catalog #E9644), 1X penicillin/streptomycin (Gibco, catalog #15140148), and 1X glutamine (Invitrogen, catalog #25030024) in 384-well clear-bottom, black walled plates at a density of 3750 cells/well (15μL/well). After plating, cells were incubated overnight at 37°C in an incubator with 5% CO2 and 90% humidity. Compounds were first serially diluted in dimethyl sulfoxide then diluted in LHC-8 media growth media to 2X concentration. Cells were dosed with 15μL of each dose for final concentrations between 0.01 – 300 μM. Cells were incubated with compounds for 24 or 72 hours. Cytotoxicity was determined with Cell Titer Glo Luminescent ATP Assay (Promega, catalog #G7573) according to the manufacturer’s instructions. Tamoxifen (Sigma, catalog #BC9353476) was used as a positive control. levels at each dose were normalized to that of cells dosed with dimethyl sulfoxide vehicle alone and IC50 values were calculated from non-linear regression fits of dose-response curves plotted
# [8] = Liver S9 metabolic stability assay, human; format: in vitro ADME; details: 3 μM, 60 min
# Procedure, shortened: (§2)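 Rat and human liver S9 (0.75 and 1.2 mg/ml) with 1 mM NADPH, 0.5 mM UDPGA, 2.5 mM GSH, 0.05 mg/ml PAPS, 3µM substrate, 60 min at 37 °C in Tris/MgCl2 pH 7.4. Mouse microsomes 0.3 mg/mL, 1 mM NADPH, 3µM, 30 min, phosphate pH 7.4. LC-MS/MS, % remaining, triplicate.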
# [9] = system: O. volvulus L5 larvae; assay: O. volvulus L5 ex vivo assay, MTT viability; format: cell-based, Onchocerca volvulus; details: Day 21, 1 uM
# Protocol: This culturing medium was then added in transwell 24-well plates containing human umbilical vein endothelial cell (HUVEC) monolayers, containing the L4 larvae. A week prior to conducting an assay, the cultured O. volvulus larvae (L5) were transferred into a Petri dish containing fresh medium. […] After the transfer of O. volvulus L5 to the plates, the test compounds were dissolved in DMSO, added to each well, and incubated at 37 °C in a 5% CO2. The media containing freshly prepared compounds were partially replaced every 2–3 days for 14 days. After 14 days, the media were completely replaced. The untreated control contains the media described above with a final concentration of 0.05% DMSO. […] The motility was measured visually by two operators. […] Following washout and incubation during 1 h in PBS under 5% CO2, worms were observed under an inverted microscope. Worms were considered dead if no staining or less than 50% within the worm was observed. Otherwise, if worms stained blue or more than 50% stained, then they are considered alive. All test treatments were performed in duplicates. Significance was determined using a t test.
# [10] = system: O. volvulus L5 larvae; assay: O. volvulus L5 ex vivo assay, motility; format: cell-based; details: Onchocerca volvulus, 504 h, read-out: O. volvulus L5 % inhibition of motility
# Protocol: O. volvulus larvae (L4) were prepared using cryopreserved O. volvulus L3 cultured in a medium containing 1:1 NCTC-109 and IMDM (Iscove’s modified Dulbecco’s medium) supplemented with Glutamax (1×) and 2× Antibiotic-Antimycotic (Life Technologies). This culturing medium was then added in transwell 24-well plates containing human umbilical vein endothelial cell (HUVEC) monolayers, containing the L4 larvae. A week prior to conducting an assay, the cultured O. volvulus larvae (L5) were transferred into a Petri dish containing fresh medium. Aliquots of 8–10 worms were retrieved from the Petri dish and placed inside new transwells over newly seeded HUVEC monolayers in the medium described above. After the transfer of O. volvulus L5 to the plates, the test compounds were dissolved in DMSO, added to each well, and incubated at 37 °C in a 5% CO2. The media containing freshly prepared compounds were partially replaced every 2–3 days for 14 days. After 14 days, the media were completely replaced. The untreated control contains the media described above with a final concentration of 0.05% DMSO. The motility was measured every 2–3 days with the following scale: 100% motility, constant coiling movement; 75% motility, slower coiling; 50% motility, slow and intermittent movement; 25% motility, very slow movement or twitching; and 0% motility, no movement. The motility was measured visually by two operators. On day 28, the viability of O. volvulus L5 was measured by MTT. Following washout and incubation during 1 h in PBS under 5% CO2, worms were observed under an inverted microscope. Worms were considered dead if no staining or less than 50% within the worm was observed. Otherwise, if worms stained blue or more than 50% stained, then they are considered alive. All test treatments were performed in duplicates. Significance was determined using a t test.
# [11] = Liver S9 metabolic stability assay, rat; format: in vitro ADME; details: 3 μM, 60 min
# Procedure, shortened: as §2
# [12] = read-out: O. gutturosa EC50 μM (SD), ex vivo adult worm motility reduction, SD in brackets
# [13] = read-out: O. gutturosa EC50 (uM) motility inhibition, supplement, SD in brackets in the PDF table
# [14] = supplement, read-out: measured logD
smiles,measurement,setting,value
"CC(C)Oc1ccc(-c2nsc(Nc3ncccc3C(=O)N(C)C)n2)nc1 [Compound 61, 2-((3-(5-Isopropoxypyridin-2-yl)-1,2,4-thiadiazol-5-yl)amino)-N,N-dimethylnicotinamide]",Papp A→B,[1],4.9 ×10⁻⁶ cm/s
same,pIC50,[2],< 4.52
same,EC50,[3]; [12],0.36 µM
same,EC50,[3]; [13],0.357 µM
same,EC50,[4],2.1 µM
same,logD at 24 h,"[5]; pH 7.4, read-out: logD",2.1
same,logD at 24 h,[5]; [14],2.1
same,solubility kinetic at 24 h,[6]; 10 mM DMSO stock solutions,101 µM and 100.70 µM
same,pIC50,[7],4.49
"CC(C)Oc1cnc(-c2nsc(Nc3ncccc3N(C)C(=O)C3CC3)n2)cc1C(F)(F)F [Compound 49, N-(2-((3-(5-Isopropoxy-4-(trifluoromethyl)pyridin-2-yl)-1,2,4-thiadiazol-5-yl)amino)pyridine-3-yl)-N-methylcyclopropanecarboxamide]",Papp A→B,[1],8.8 ×10⁻⁶ cm/s
same,pIC50,[2],< 4.52
same,EC50,[3]; [12],1.11 µM
same,EC50,[4],3.7 µM
same,logD at 24 h,"[5]; pH 7.4, read-out: logD",3.63
same,logD at 24 h,[5]; [14],3.63
same,solubility kinetic at 24 h,[6]; 10 mM DMSO stock solutions,2.67 µM
same,pIC50,[7],4.74
CC(=O)N(C)c1cnc(Nc2nc(-c3ccc(OC(C)C)cn3)ns2)c(C)c1 [Compound 51],Papp A→B,[1],30.3 ×10⁻⁶ cm/s
same,EC50,[3]; [12],0.49 µM
same,EC50,[3]; [13],0.488 µM
same,EC50,[4],0.46 µM
same,logD at 24 h,"[5]; pH 7.4, read-out: logD",2.2
same,logD at 24 h,[5]; [14],2.2
same,solubility kinetic at 24 h,[6]; 10 mM DMSO stock solutions,15 µM
"CC(=O)N(C)c1cc(C(F)(F)F)cnc1Nc1nc(-c2ccc(OC(C)C)cn2)ns1 [Compound 54, N-(2-((3-(5-Isopropoxypyridin-2-yl)-1,2,4-thiadiazol-5-yl)amino)-5-(trifluoromethyl)pyridin-3-yl)-N-methylacetamide]",Papp A→B,[1],9.9 ×10⁻⁶ cm/s
same,pIC50,[2],< 4.52
same,EC50,[3]; [12],0.14 µM
same,EC50,[3]; [13],0.139 µM
same,EC50,[4],0.15 µM
same,logD at 24 h,"[5]; pH 7.4, read-out: logD",3.13
same,logD at 24 h,[5]; [14],3.13
same,solubility kinetic at 24 h,[6]; 10 mM DMSO stock solutions,13.1 µM
same,pIC50,[7],5.21
"CC(C)Oc1cccnc1-c1nsc(Nc2ncc(C(F)(F)F)cc2C(=O)N(C)C)n1 [Compound 58, 2-[[3-(3-Isopropoxy-2-pyridyl)-1,2,4-thiadiazol-5-yl]amino]-N,N-dimethyl-5-(trifluoromethyl)pyridine-3-carboxamide]",Papp A→B,[1],11.2 ×10⁻⁶ cm/s
same,EC50,[3]; [12],0.62 µM
same,EC50,[3]; [13],0.621 µM
same,EC50,[4],1.5 µM
same,logD at 24 h,"[5]; pH 7.4, read-out: logD",2.15
same,logD at 24 h,[5]; [14],2.15
same,solubility kinetic at 24 h,[6]; 10 mM DMSO stock solutions,130 µM
"CC(C)c1cccnc1Nc1nc(-c2ccc(OC3CC3)cn2)ns1 [Compound 23, 3-(5-Cyclopropoxypyridin-2-yl)-N-(3-isopropylpyridin-2-yl)-1,2,4-thiadiazol-5-amine]",Human S9 metabolic stability,[8],39 % remaining
same,O. volvulus L5 % inhibition of viability,[9],100%
same,EC50,[3]; [12],0.04 µM
same,EC50,[3]; [13],0.038 µM
same,pEC50,"[3]; read-out: O. gutturosa EC50, adult worm motility, bound stated",> 7.00
same,EC50,[4],0.012 µM
same,logD at 24 h,"[5]; pH 7.4, read-out: logD",2.5
same,logD at 24 h,[5]; [14],2.5
same,inhibition at 1 µM,[10],100%
same,Rat S9 metabolic stability,[11],78 % remaining
"CC(C)Oc1cnc(-c2nsc(Nc3ncccc3N3CCCC3=O)n2)cc1C(F)(F)F [Compound 52, 1-(2-((3-(5-Isopropoxy-4-(trifluoromethyl)pyridin-2-yl)-1,2,4-thiadiazol-5-yl)amino)pyridin-3-yl)pyrrolidin-2-one]",Papp A→B,[1],12.9 ×10⁻⁶ cm/s
same,EC50,[3]; [12],1.73 µM
same,EC50,[4],1.95 µM
same,logD at 24 h,"[5]; pH 7.4, read-out: logD",2.7
same,logD at 24 h,[5]; [14],2.7
same,solubility kinetic at 24 h,[6]; 10 mM DMSO stock solutions,9.95 µM
CC(=O)N(C)c1cccnc1Nc1nc(-c2cc(C(F)(F)F)c(OC(C)C)cn2)ns1 [Compound 48],Papp A→B,[1],6.9 ×10⁻⁶ cm/s
same,pIC50,[2],4.59
same,EC50,[3]; [12],3.71 µM
same,EC50,[4],1.05 µM
same,logD at 24 h,"[5]; pH 7.4, read-out: logD",3.5
same,logD at 24 h,[5]; [14],3.5
same,solubility kinetic at 24 h,[6]; 10 mM DMSO stock solutions,10.8 µM
same,solubility kinetic at 24 h,[6]; supplement,10.8 µM
same,pIC50,[7],5.08
